Test results from PubChem BioAssay (NCI).
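A five-concentration, 48-hour dose response in 96-well plates underlies each endpoint, interpolated linearly between surrounding concentrations. TGI is the concentration that stops growth completely.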

What was measured:
Assay in all cases: NCI tumour cell line growth inhibition, 48 h
SN12C renal = system: SN12C renal
SNB-78 CNS = system: SNB-78 CNS
KM20L2 colon = system: KM20L2 colon
XF 498 CNS = system: XF 498 CNS
DLD-1 colon = system: DLD-1 colon
DMS 273 small cell lung = system: DMS 273 small cell lung
LXFL 529 NSCLC = system: LXFL 529 NSCLC
M19-MEL melanoma = system: M19-MEL melanoma
HOP-18 NSCLC = system: HOP-18 NSCLC
SN12K1 renal = system: SN12K1 renal
DMS 114 small cell lung = system: DMS 114 small cell lung
P388/ADR leukemia = system: P388/ADR leukemia

For `N#Cc1c(NC(=S)NCc2ccccc2)sc2c1CCN(N1CCc3c(sc(NC(=S)NCc4ccccc4)c3C#N)C1)C2`, which TGI (SN12C renal) is on record?
Its TGI is greater than 100 µM.

With `Nc1cccc(OCc2nc(N)nc(N)c2-c2ccc(Cl)cc2)c1` as the compound, how does the TGI (SN12C renal) read?
Its TGI is greater than 100 µM.

`CNC(=O)CN1CC(=O)N(C)C(=O)C1` was tested. Which TGI (SNB-78 CNS) did it give?
The TGI was greater than 100 µM.

What about the TGI (KM20L2 colon) of the same compound?
Its TGI is greater than 100 µM.

What about the TGI (XF 498 CNS) of the same compound?
Its TGI is greater than 100 µM.

And the TGI (DLD-1 colon)?
Its TGI is greater than 100 µM.

What about the TGI (DMS 273 small cell lung) of the same compound?
The TGI was greater than 100 µM.

What about the TGI (LXFL 529 NSCLC) of the same compound?
The TGI was greater than 100 µM.

What about the TGI (M19-MEL melanoma) of the same compound?
The TGI was greater than 100 µM.

What does the source list for `CCN1/C(=C/C(C)=C/c2sc3ccccc3[n+]2CC)Sc2ccccc21`?
TGI (SNB-78 CNS): 2.51 µM; TGI (KM20L2 colon): 2.03 µM; TGI (XF 498 CNS): 0.663 µM; TGI (LXFL 529 NSCLC): 1.2 µM; TGI (M19-MEL melanoma): 2.16 µM

With `O=C1c2ccccc2C(=O)N1c1ccc(OCCN2CCCCC2)cc1` as the compound, how does the TGI (SN12C renal) read?
Its TGI is greater than 100 µM.

`O/N=C\c1cc(O)c(O)c(/C=N/O)c1` was tested. Which TGI (SN12C renal) did it give?
The TGI was greater than 100 µM.

With `CN1CCN(c2ccc3[nH]c(C4=C(O)c5nc(CO)n(C)c5C(=O)C4=O)nc3n2)CC1` as the compound, how does the TGI (SN12C renal) read?
Its TGI is greater than 100 µM.

How did the TGI (SN12C renal) turn out when `Cc1cccc2c1C(=O)C(C1OC(=O)c3ccccc31)C2` (stereo not given) was run?
The TGI was greater than 100 µM.

Which TGI (SN12C renal) does the source give for `O=[N+]([O-])C1(C2([N+](=O)[O-])CCCC2)CCCC1` here?
Its TGI is greater than 100 µM.

How did the TGI (SN12C renal) turn out when `O=C(O)CCC1(c2ccccc2)NC(=O)NC1=O` (stereo not given) was run?
Its TGI is greater than 100 µM.

With `COC(=O)CCCCC/C(=C\C(=O)C(Cl)(Cl)Cl)OC` as the compound, how does the TGI (SN12C renal) read?
The TGI was greater than 100 µM.

How did the TGI (SN12C renal) turn out when `N#Cc1c(-c2ccc(Cl)cc2)c(C#N)c(=O)n(NS(=O)(=O)c2ccccc2)c1-c1ccccc1` was run?
The TGI was greater than 25 µM.

For `Cc1ccc2[nH]c3c(C)c4ccncc4c(C)c3c2c1`, which TGI (SN12C renal) is on record?
Its TGI is 2.39 µM.

And the TGI (SNB-78 CNS)?
The TGI was 4.64 µM.

And the TGI (HOP-18 NSCLC)?
The TGI was 4.6 µM.

And the TGI (KM20L2 colon)?
Its TGI is 5.57 µM.

And the TGI (SN12K1 renal)?
Its TGI is 2.29 µM.

What about the TGI (XF 498 CNS) of the same compound?
The TGI was 3 µM.

And the TGI (DLD-1 colon)?
The TGI was 2.34 µM.

And the TGI (DMS 273 small cell lung)?
Its TGI is 2.13 µM.

What about the TGI (LXFL 529 NSCLC) of the same compound?
Its TGI is 2.42 µM.

And the TGI (DMS 114 small cell lung)?
Its TGI is 2.71 µM.

And the TGI (M19-MEL melanoma)?
Its TGI is 2.75 µM.

What about the TGI (P388/ADR leukemia) of the same compound?
The TGI was 3.62 µM.

With `CC(C)(C)C=C=C(C(C)(C)C)P(=O)(O)O` as the compound, how does the TGI (SN12C renal) read?
The TGI was greater than 100 µM.
